Results on four compounds are retold here after patent US20060241183A1, “Compositions and methods of using D-DOPA to treat Parkinson's disease” (priority 2004, published 2006).

Data set [1] deals with urinary excretion of dopamine. The conditions noted are these: D- and L-DOPA 50 mg/kg; cited from earlier work.
The test system of a further data set is circling. The conditions noted are these: rats with unilateral 6-hydroxydopamine lesion; cited from earlier work.
For data set [2], the target named is T1, L-amino acid decarboxylase (Homo sapiens, UniProt P20711).
T1 sequence (P20711 1-480): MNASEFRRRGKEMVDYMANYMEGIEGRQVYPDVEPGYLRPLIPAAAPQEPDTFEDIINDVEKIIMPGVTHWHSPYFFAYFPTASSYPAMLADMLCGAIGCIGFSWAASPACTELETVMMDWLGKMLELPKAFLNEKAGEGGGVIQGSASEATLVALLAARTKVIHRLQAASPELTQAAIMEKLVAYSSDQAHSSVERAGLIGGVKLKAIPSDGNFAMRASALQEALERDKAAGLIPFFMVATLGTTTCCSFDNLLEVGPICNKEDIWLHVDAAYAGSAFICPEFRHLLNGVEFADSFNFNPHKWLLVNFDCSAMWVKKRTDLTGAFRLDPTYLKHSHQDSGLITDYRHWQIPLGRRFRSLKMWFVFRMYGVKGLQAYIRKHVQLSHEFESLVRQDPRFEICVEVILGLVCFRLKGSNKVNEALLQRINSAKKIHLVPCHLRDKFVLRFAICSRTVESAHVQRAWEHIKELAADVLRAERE
The conditions noted are these: cited from earlier work.

Data set [3] has as its system striatal concentration of dopamine, DOPAC and HVA. As to the kind of experiment: Striatal dopamine, DOPAC and HVA after intragastric D- or L-DOPA plus carbidopa in rats with unilateral substantia nigra lesions. The settings on record: for time for formation of dopamine in the striatum to reach its maximum concentration: after intragastric administration, inferred from DOPAC and HVA in lesion striata; for time to achieve maximum concentration of dopamine in the central nervous system: following intragastric administration; for increase of dopamine and its metabolites in the intact striata, D- versus L-DOPA / time at which dopamine content in the intact striata peaked / change of dopamine concentrations in the lesion striata: intragastric administration; for change of concentrations of DOPAC and HVA in the lesion striata: one hour after treatment. Type of data set: in vivo, male Sprague-Dawley Rats. From the text: The present example illustrates the efficacy of the administration of D-DOPA of L-DOPA in vivo. In order to show the effectiveness of D-DOPA for increasing striatal dopamine content, male Sprague-Dawley Rats (Zivic-Miller, Allison Park, Pa.) weighing 300 to 400 grams were used. At least four weeks prior to the experiments, unilateral Substantia Nigra lesions were produced with intranigral administration of 6-hydroxydopamine according to the procedures set forth in Ungerstedt, Acta Physiol. Scand. (Suppl.) 367, 69 (1971).
The extent of unilateral Substantia Nigra lesions was tested by measuring apomorphine simulated rotation according to the procedures described in Understedt, supra, 1971; Freed et al. Ann. Neurol. 8, 510 (1980).
Either D- or L-DOPA was intragastrically administered to the rats in combination with carbidopa at doses of 50 mg/kg body weight of D-DOPA or L-DOPA and 5 mg/kg body weight of carbidopa, suspended in sterile water, to provide a pharmaceutically acceptable solution for administration. D- or L-DOPA was intragastrically administered to groups of five rats, which were sacrificed one or two hours after treatment. The left (intact) and right (lesioned) striata of these rats were excised and analyzed separately for the content of dopamine and its metabolites 3,4-dihydroxyphenylacetic acid (DOPAC) and homovanillic acid (HVA), according to the procedure as set forth in Karoum, Neuromethods, Vol. 2 (G. B. Baker, A. A. Boulton and J. M. Baker eds.), The Humana Press, Inc., New Jersey, page 305, 1985 (referred to hereafter as “Karoum, Neuromethods”).

Data set [4] concerns striatal dopamine and its metabolites (DOPAC and HVA). As to the kind of experiment: Striatal dopamine, DOPAC and HVA after intraventricular administration of L-DOPA, D-DOPA or DHPPA. Type of data set: in vivo, Sprague-Dawley rats. The conditions noted are these: for Striatal DOPAC / Striatal Dopamine / Striatal HVA: intraventricular, 10 μl, 2 h after treatment, mean ± S.E.M. How it is done: The present example illustrates the possible involvement of DHPPA in the formation of dopamine from D-DOPA. […] In an attempt to examine an alternate pathway, four groups of Sprague-Dawley rats weighing 120-150 grams with cannulae permanently implanted into their lateral ventricles, according to the procedure described in Robinson et al., Physiol. Behav. 4, 123-124, (1969), were used. One group received 10 μl. of saline into the ventricles. The second, third and fourth groups received, intraventricularly, 200.μ.g of L-DOPA, D-DOPA and 3,4-dihydroxyphenylpyruvic acid (DHPPA) in 10 μl of saline, respectively. The rats were sacrificed two hours after treatment and their striata removed and analyzed. Striatal concentrations of dopamine, DOPAC and HVA were measured by massfragmentography according to the procedure set forth in Karoum, Neuromethods.

Data set [5] relates to striatal dopamine or its metabolites. Kind of data set: Repeated intragastric administration of DHPPA plus carbidopa, striatal dopamine and metabolites. Type of data set: in vivo. The conditions noted are these: concluded from repeated intragastric administration.
The next data set concerns hypothalamic dopamine. As to the kind of experiment: Hypothalamic dopamine and metabolites after intragastric D- and L-DOPA. In kind it is in vivo. The conditions noted are these: after intragastric administration. From the text: DHPPA can be formed from D-DOPA by either of two pathways, that is, direct transamination, or through deamination by D-amino acid oxidase, an enzyme widely distributed in the brain. The pattern of changes of striatal dopamine and its metabolites observed after intragastric administration of D- and L-DOPA are similar to those observed in the hypothalamus.

With `C[C@@](Cc1ccc(O)c(O)c1)(NN)C(=O)O` [Carbidopa, carbidopa], the “reduction of urinary excretion of dopamine following D-DOPA compared with co-administration with L-DOPA” value in data set [1] is given as “to a far greater degree”.

Take `N[C@H](Cc1ccc(O)c(O)c1)C(=O)O` [D-DOPA]: the induction of circling entry in the data set on circling is listed as “can induce circling”. Besides, in data set [2], the “substrate for L-amino acid decarboxylase” value is reported as “not a substrate”. In data set [3], the “time for formation of dopamine in the striatum to reach its maximum concentration” value was “within one hour”; the “time to achieve maximum concentration of dopamine in the central nervous system” value came to 2 h; the “increase of dopamine and its metabolites in the intact striata, D- versus L-DOPA” value is listed as “to about the same extent”; the “time at which dopamine content in the intact striata peaked” value is on record as “two hours”. In addition, in data set [3], the “change of dopamine concentrations in the lesion striata” value is recorded as “Neither D- nor L-DOPA increased dopamine concentrations”; the “change of concentrations of DOPAC and HVA in the lesion striata” value was “markedly increased”. In data set [4], the “Striatal DOPAC” value is reported as 19 ± 0.92 ng/mg protein, the “Striatal Dopamine” value is on record as 116 ± 5.1 ng/mg protein and the “Striatal HVA” value was 4.8 ± 0.50 ng/mg protein.

`O=C(O)C(=O)Cc1ccc(O)c(O)c1` [DHPPA, 3,4-dihydroxyphenylpyruvic acid]: in data set [5], the “crossing of the blood brain barrier” value is reported as “does not easily cross the blood brain barrier”. Moreover, the “elevations of dopamine and DOPAC compared with D- or L-DOPA” value in data set [4] (intraventricular administration) is on record as “larger elevations”. For the same compound, in data set [4], the “Striatal DOPAC” value is given as 96 ± 16.6 ng/mg protein, the “Striatal Dopamine” value was 140 ± 11.0 ng/mg protein and the “Striatal HVA” value is 23.3 ± 3.53 ng/mg protein.

In the case of `N[C@@H](Cc1ccc(O)c(O)c1)C(=O)O` [L-DOPA], in data set [3], the “time for formation of dopamine in the striatum to reach its maximum concentration” value is “within one hour”; the “time to achieve maximum concentration of dopamine in the central nervous system” value was found to be 1 h; the “increase of dopamine and its metabolites in the intact striata, D- versus L-DOPA” value is on record as “to about the same extent”; the “time at which dopamine content in the intact striata peaked” value was “one hour”. Also, in data set [3], the “change of dopamine concentrations in the lesion striata” value was “Neither D- nor L-DOPA increased dopamine concentrations”; the “change of concentrations of DOPAC and HVA in the lesion striata” value is given as “markedly increased”. In data set [4], the “Striatal DOPAC” value is 59 ± 9.49 ng/mg protein, the “Striatal Dopamine” value amounted to 120 ± 7.4 ng/mg protein and the “Striatal HVA” value came out at 22.2 ± 1.60 ng/mg protein. Besides, the “increases in hypothalamic DOPAC and HVA, L-DOPA versus D-DOPA” value with hypothalamic dopamine is on record as “considerably higher”.
